The values below come from patent publication US11566002B2, “Substituted tetrahydrocyclopenta[C]pyrroles, substituted dihydropyrrolizines, analogues thereof, and methods using same” (priority 2018, dated 2023).

This test deals with HBV rcDNA. The test can be described thus: HepDE19 assay with bDNA quantitation of HBV rcDNA. The class given is cell-based, hepatitis B virus. The method in brief:
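HepDE19 cells (50,000/well) switched to Tet-free medium, then treated 7 days at 37° C with compounds from 25 μM (½-log, 8-point, duplicate; 0.5% DMSO). rcDNA quantified by bDNA with HBV probes; EC50/EC90 by 4-parameter fit. CC50 from CTG ATP on 5,000 cells/well after 4 days.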

The mark [1] stands for this setting: Hepatitis B virus, HepDE19, 168 h, HepDE19 cells, Tet-free medium, 7 day-incubation, rcDNA measured by Quantigene 2.0 bDNA assay, top concentration 25 μM, read-out: DE-19 bDNA EC50.
Where [2] appears, read: read-out: DE-19 bDNA EC50, HepDE19 cells, Tet-free medium, 7 day-incubation, rcDNA measured by Quantigene 2.0 bDNA assay, top concentration 25 μM.
[3] abbreviates: HepDE19 cells, Tet-free medium, 7 day-incubation, rcDNA measured by Quantigene 2.0 bDNA assay, top concentration 25 μM, read-out: DE-19 bDNA EC50.

Like-named read-outs stand apart in the source and are kept apart here.

With `Cn1cnc(COC(=O)NC2CCc3c2cn(C)c3C(=O)Nc2ccc(F)c(C(F)(F)F)c2)n1` (single isomer, unassigned) [Compound 69, (1-Methyl-1H-1,2,4-triazol-3-yl)methyl (1-((4-fluoro-3-(trifluoromethyl)phenyl)carbamoyl)-2-methyl-2,4,5,6-tetrahydrocyclopenta[c]pyrrol-4-yl)carbamate], the EC50 under setting [1] came out at 0.28 µM.

As to `Cn1cnc(COC(=O)NC2CCc3c2cn(C)c3C(=O)Nc2ccc(F)c(C(F)F)c2)n1` (single isomer, unassigned) [Compound 70, (1-Methyl-1H-1,2,4-triazol-3-yl)methyl (1-((3-(difluoromethyl)-4-fluorophenyl)carbamoyl)-2-methyl-2,4,5,6-tetrahydrocyclopenta[c]pyrrol-4-yl)carbamate], the EC50 under setting [1] came to 0.07 µM.

Turning to `Cn1cnc(COC(=O)NC2CCc3c2cn(C)c3C(=O)Nc2cc(F)c(F)c(F)c2)n1` (single isomer, unassigned) [Compound 71, (1-methyl-1H-1,2,4-triazol-3-yl)methyl (2-methyl-1-((3,4,5-trifluorophenyl)carbamoyl)-2,4,5,6-tetrahydrocyclopenta[c]pyrrol-4-yl)carbamate], under setting [1], the EC50 is 0.18 µM.

Regarding `Cn1cnc(COC(=O)NC2CCc3c2cn(C)c3C(=O)Nc2ccnc(C(F)(F)F)c2)n1` (single isomer, unassigned) [Compound 73, (1-methyl-1H-1,2,4-triazol-3-yl)methyl (2-methyl-1-((2-(trifluoromethyl)pyridin-4-yl)carbamoyl)-2,4,5,6-tetrahydrocyclopenta[c]pyrrol-4-yl)carbamate], the EC50 under setting [1] came to 0.54 µM.

Regarding `COC(=O)NC1CCCc2c1cn(C)c2C(=O)Nc1ccc(F)c(Cl)c1` (single isomer, unassigned) [Compound 74, Methyl (1-((3-chloro-4-fluorophenyl)carbamoyl)-2-methyl-4,5,6,7-tetrahydro-2H-isoindol-4-yl)carbamate], for the setting “Hepatitis B virus, HepDE19, 168 h, read-out: DE-19 bDNA EC50 (μM), HepDE19 cells, Tet-free medium, 7 day-incubation, rcDNA measured by Quantigene 2.0 bDNA assay, top concentration 25 μM”, the EC50 came out at 0.61 µM.

Regarding `Cn1cc2c(c1C(=O)Nc1ccc(F)c(Cl)c1)CCCC2N` (single isomer, unassigned) [Compound 75, 4-Amino-N-(3-chloro-4-fluorophenyl)-2-methyl-4,5,6,7-tetrahydro-2H-isoindole-1-carboxamide], under setting [1], the EC50 was found to be 2.1 µM.

Turning to `Cn1cc2c(c1C(=O)Nc1ccc(F)c(Cl)c1)CCCC2NC(=O)C1CC1` (single isomer, unassigned) [Compound 76, N-(3-chloro-4-fluorophenyl)-4-(cyclopropanecarboxamido)-2-methyl-4,5,6,7-tetrahydro-2H-isoindole-1-carboxamide], the EC50 under setting [1] is 1 µM.

As to `Cn1ccc(COC(=O)NC2CCCc3c2cn(C)c3C(=O)Nc2ccc(F)c(Cl)c2)n1` (single isomer, unassigned) [Compound 77, (1-Methyl-1H-pyrazol-3-yl)methyl(1-((3-chloro-4-fluorophenyl)carbamoyl)-2-methyl-4,5,6,7-tetrahydro-2H-isoindol-4-yl)carbamate], the EC50 under setting [2] was 0.07 µM.

For the molecule `Cn1cc2c(c1C(=O)Nc1ccc(F)c(Cl)c1)CCCC2NS(=O)(=O)C1CC1` (single isomer, unassigned) [Compound 78, N-(3-Chloro-4-fluorophenyl)-4-(cyclopropanesulfonamido)-2-methyl-4,5,6,7-tetrahydro-2H-isoindole-1-carboxamide], the EC50 under setting [1] was 3.96 µM.

On to `COC(=O)NC1CCCCc2c1cn(C)c2C(=O)Nc1ccc(F)c(Cl)c1` (single isomer, unassigned) [Compound 79, Methyl (1-((3-chloro-4-fluorophenyl)carbamoyl)-2-methyl-2,4,5,6,7,8-hexahydrocyclohepta[c]pyrrol-4-yl)carbamate], for which the EC50 under setting [2] was found to be 0.73 µM.

In the case of `Cn1cnc(COC(=O)NC2CCc3c2cn(C)c3C(=O)Nc2ccnc(C(F)F)c2)n1` (single isomer, unassigned) [Compound 81, (1-methyl-1H-1,2,4-triazol-3-yl)methyl (1-((2-(difluoromethyl)pyridin-4-yl)carbamoyl)-2-methyl-2,4,5,6-tetrahydrocyclopenta[c]pyrrol-4-yl)carbamate], under setting [1], the EC50 worked out at 0.6 µM.

Turning to `Cc1c2c(c(C(=O)Nc3ccc(F)c(Cl)c3)n1C)CCC2NC(=O)OCc1ncn(C)n1` (single isomer, unassigned) [Compound 82, (1-Methyl-1H-1,2,4-triazol-3-yl)methyl (1-((3-chloro-4-fluorophenyl)carbamoyl)-2,3-dimethyl-2,4,5,6-tetrahydrocyclopenta[c]pyrrol-4-yl)carbamate], the EC50 under setting [3] is 0.11 µM.

Regarding `Cc1c2c(c(C(=O)Nc3ccc(F)c(Cl)c3)n1C)CCC2NC(=O)OCc1ncn(C)n1` (single isomer, unassigned) [Compound 83, (1-Methyl-1H-1,2,4-triazol-3-yl)methyl (1-((3-chloro-4-fluorophenyl)carbamoyl)-2,3-dimethyl-2,4,5,6-tetrahydrocyclopenta[c]pyrrol-4-yl)carbamate], the EC50 under setting [3] worked out at 3.3 µM.

On to `Cn1cnc(CNC(=O)NC2CCCc3c2cn(C)c3C(=O)Nc2ccc(F)c(Cl)c2)n1` (single isomer, unassigned) [Compound 84, N-(3-Chloro-4-fluorophenyl)-2-methyl-4-(3-((1-methyl-1H-1,2,4-triazol-3-yl)methyl)ureido)-4,5,6,7-tetrahydro-2H-isoindole-1-carboxamide], for which, under setting [1], the EC50 was determined as 0.34 µM.

Turning to `COC(=O)NC1CCCCc2c1cn(C)c2C(=O)Nc1ccc(F)c(Cl)c1` (single isomer, unassigned) [Compound 85, Methyl (1-((3-chloro-4-fluorophenyl)carbamoyl)-2-methyl-2,4,5,6,7,8-hexahydrocyclohepta[c]pyrrol-4-yl)carbamate], the EC50 under setting [2] came out at 1.5 µM.

Take `Cn1cnc(COC(=O)NC2CCCCc3c2cn(C)c3C(=O)Nc2ccc(F)c(Cl)c2)n1` (single isomer, unassigned) [Compound 86, (1-Methyl-1H-1,2,4-triazol-3-yl)methyl (1-((3-chloro-4-fluorophenyl)carbamoyl)-2-methyl-2,4,5,6,7,8-hexahydrocyclohepta[c]pyrrol-4-yl)carbamate]: the EC50 under setting [3] is 0.16 µM.

Regarding `Cn1cc2c(c1C(=O)Nc1ccc(F)c(Cl)c1)CCCC2NC(=O)OCc1nc[nH]n1` (single isomer, unassigned) [Compound 88, (1H-1,2,4-Triazol-3-yl)methyl (1-((3-chloro-4-fluorophenyl)carbamoyl)-2-methyl-4,5,6,7-tetrahydro-2H-isoindol-4-yl)carbamate], under setting [1], the EC50 came to 0.51 µM.

For `Cn1cnc(COC(=O)NC2CCCCc3c2cn(C)c3C(=O)Nc2ccc(F)c(Cl)c2)n1` (single isomer, unassigned) [Compound 89, (1-Methyl-1H-1,2,4-triazol-3-yl)methyl (1-((3-chloro-4-fluorophenyl)carbamoyl)-2-methyl-2,4,5,6,7,8-hexahydrocyclohepta[c]pyrrol-4-yl)carbamate], the EC50 under setting [3] came to 2.9 µM.

`Cn1cnc(COC(=O)NC2CCc3c2c(C2CC2)n(C)c3C(=O)Nc2ccc(F)c(Cl)c2)n1` (single isomer, unassigned) [Compound 90, (1-Methyl-1H-1,2,4-triazol-3-yl)methyl (1-((3-chloro-4-fluorophenyl)carbamoyl)-3-cyclopropyl-2-methyl-2,4,5,6-tetrahydrocyclopenta[c]pyrrol-4-yl)carbamate]: the EC50 under setting [3] was 0.42 µM.

Take `Cn1cnc(COC(=O)NC2CCc3c2c(C2CC2)n(C)c3C(=O)Nc2ccc(F)c(Cl)c2)n1` (single isomer, unassigned) [Compound 91, (1-Methyl-1H-1,2,4-triazol-3-yl)methyl (1-((3-chloro-4-fluorophenyl)carbamoyl)-3-cyclopropyl-2-methyl-2,4,5,6-tetrahydrocyclopenta[c]pyrrol-4-yl)carbamate]: the EC50 under setting [3] was 22 µM.

Turning to `Cc1c2c(c(C(=O)Nc3ccc(F)c(Cl)c3)n1C)CCCC2NC(=O)OCc1ncn(C)n1` (single isomer, unassigned) [Compound 92, (1-Methyl-1H-1,2,4-triazol-3-yl)methyl (1-((3-chloro-4-fluorophenyl)carbamoyl)-2,3-dimethyl-4,5,6,7-tetrahydro-2H-isoindol-4-yl)carbamate], the EC50 under setting [1] was determined as 0.53 µM.

Consider `Cc1c2c(c(C(=O)Nc3ccc(F)c(Cl)c3)n1C)CCCC2NC(=O)OCc1ncn(C)n1` (single isomer, unassigned) [Compound 93, (1-Methyl-1H-1,2,4-triazol-3-yl)methyl (1-((3-chloro-4-fluorophenyl)carbamoyl)-2,3-dimethyl-4,5,6,7-tetrahydro-2H-isoindol-4-yl)carbamate], for which the EC50 under setting [3] was 0.95 µM.

Turning to `Cn1cnc(COC(=O)NC2CCCc3c2c(Cl)n(C)c3C(=O)Nc2ccc(F)c(Cl)c2)n1` (single isomer, unassigned) [Compound 94, (1-Methyl-1H-1,2,4-triazol-3-yl)methyl (3-chloro-1-((3-chloro-4-fluorophenyl)carbamoyl)-2-methyl-4,5,6,7-tetrahydro-2H-isoindol-4-yl)carbamate], the EC50 under setting [1] is 0.44 µM.

As for `Cn1cnc(COC(=O)NC2CCc3c2c(C2CCC2)n(C)c3C(=O)Nc2ccc(F)c(Cl)c2)n1` (single isomer, unassigned) [Compound 96, (1-Methyl-1H-1,2,4-triazol-3-yl)methyl (1-((3-chloro-4-fluorophenyl)carbamoyl)-3-cyclobutyl-2-methyl-2,4,5,6-tetrahydrocyclopenta[c]pyrrol-4-yl)carbamate], the EC50 under setting [3] amounted to 0.42 µM.
